Measurements reported in patent publication US20140378395A1, “Peptides for the Treatment of Hearing” (13Therapeutics, Inc., priority 2011, published 2014).
No end group written: not given here.

Key:
BALB/c mice [1] = experiment: Ototoxicity of topical administration in normal mice, ABR; type: in vivo, mouse; conditions: 1, 10, 10 (twice) or 60 μg/30 μL topically; ABR 1-4 weeks
Method: P13 (SEQ ID NO: 369) was investigated for possible negative impact on hearing in normal mice upon administration by ear drops. BALB/c mice, 16 weeks of age, (n=16) received two baseline auditory brainstem response (ABR) tests one week apart, and an otoscopic exam in both ears. ABR stimuli consisted of 20 tone-burst trains at 4 kHz, 8 kHz, 16 kHz and 32 kHz at five intensity levels in 10 dB steps, as previously described. An otoscopic exam was performed using an operating microscope to establish the clinical symptoms of AOM, as previously described. Any animal with an abnormal ABR or exam on pre-screen was not entered into the study.
All 16 animals remained in the study and were divided into five groups as follows:
group 1: (n=6 ears) 1 μg P13 (SEQ ID NO: 369)/30 μl, topically, given once;
group 2: (n=7 ears) 10 μg P13 (SEQ ID NO: 369)/30 μL, topically, given once;
group 3: (n=7 ears) 10 μg P13 (SEQ ID NO: 369)/30 μL, topically, given twice, 24 hours apart;
group 4: (n=6 ears) 60 μg P13 (SEQ ID NO: 369)/30 μL, topically, given once; and
ABRs were performed at one, two, three and four weeks post P13 (SEQ ID NO: 369) treatment. The two baseline ABRs were averaged and compared to the ABRs post P13 (SEQ ID NO: 369) treatment.

BALB/c mice [2] = experiment: Effects of peptide on middle ear without added bacteria; type: in vivo, mouse; conditions: 10 μM, no bacteria, 3 days; p=0.104, 0.880, 0.891
Method: BALB/c (Bagg albino) mice, about 8-12 weeks of age, are anesthetized with a subcutaneous injection of xylazine & ketamine (about 0.1 mg/30 gm body weight) and their ears examined under the operating microscope to assure they are free of infection or perforation. One group of animals is injected with PBS (Phospho-buffered saline) in one ear and with about 10 μM of a peptide of Table 1 in the opposite ear, to determine the effect of peptide without added bacteria. A second group of animals receive about 5.0 μl of PBS plus heat-inactivated S. pneumoniae (about 10^9 CFU/ml) in one ear and about 5.0 μl of peptide (about 10 μM) plus heat-inactivated S. pneumoniae (about 10^9 CFU/ml) in the opposite ear. […] Inflammation is quantified by measuring 1) area of fluid present in the middle ear; 2) number of cells in middle ear fluid; and 3) thickness of the tympanic membrane (TM) taken at a point away from the injection site. Data are obtained from mice (n=18) injected with PBS alone for each of the histological parameters measured, to serve as a control group.
Five mice were injected in one ear with PBS and in the opposite ear with 10 μM peptide P13 (SEQ ID NO: 369). Three days later the animals were killed, and the middle ears embedded, sectioned, stained and evaluated for fluid area, infiltrating cell number, and thickness of the tympanic membrane. […]

[3] = system: TNF-α production in RAW264.7 cells; type: cell-based, murine; conditions: 30 μg/mL, 15 minutes pre-incubation, 4 hours

Sequence | impact on hearing thresholds in normal mice (ototoxicity) (BALB/c mice [1]) | differences between PBS-injected ear and P13-injected ear in fluid area, cell number, tympanic membrane thickness (BALB/c mice [2]) | NCE-stimulated TNF-α production compared to control peptide [3]
DIVKLTVYDCI [Peptide P13, DIVKLTVYDCI] | did not negatively impact hearing thresholds | no differences | –
EEYFMYRGLLGLRIKYG [Peptide P7] | – | – | significantly inhibited
